Structures are written as SMILES.

We go through 19 compounds from PMC7168933, “Design, Synthesis and Biochemical Evaluation of Novel Ethanoanthracenes and Related Compounds to Target Burkitt’s Lymphoma” (Pharmaceuticals, 2020).

In data set [1] the test system is MUTU-1 Burkitt lymphoma cell line (EBV+). The data set is described as follows: cells. Particulars: Mutu-1, 24 h; for viability at 1 µM: read-out: MUTU-1 Cell Viability % 1 μM, 1 μM, 24 h; for viability at 10 µM: read-out: MUTU-1 Cell Viability % 10 μM, 10 μM, 24 h; for IC50: read-out: IC50 MUTU-I 24 h.
Data set [2] has as its system DG-75 Burkitt lymphoma cell line (EBV−, chemoresistant). As to the kind of experiment: cells. The settings on record: Homo sapiens, DG-75, 48 h; for viability at 1 µM: read-out: DG-75 Cell Viability % 1 μM, 1 μM, 48 h; for viability at 10 µM: read-out: DG-75 Cell Viability % 10 μM, 10 μM, 48 h.

In general, melting point refers to the temperature, or range, at which the solid turns liquid. In general, viability refers to a read-out of living cells in per cent, often relative to untreated cells. The compound `CC/C(=C\C12c3ccccc3C(Cl)(c3ccccc31)C1C(=O)NC(=O)C12)[N+](=O)[O-]` (stereo not shown) [Compound 13l, (E)-9-Chloro-10-(2-nitrobut-1-en-1-yl)-9,10-dihydro-9,10-[3,4]epipyrroloanthracene-12,14-dione] gave a melting point of 294 to 298 °C. Further, in data set [1], the viability at 1 µM came out at 88.6% and the viability at 10 µM is 88.3%. In addition, in data set [2], the viability at 1 µM was determined as 90% and the viability at 10 µM turned out to be 102%.

Turning to `O=C1OC(=O)C2C1C1c3ccccc3C2(CC[N+](=O)[O-])c2ccccc21` (stereo not shown) [Compound 14a, 9-(2-Nitroethyl)-9,10-dihydro-9,10-[3,4]furanoanthracene-12,14-dione], the melting point was in the range of 242 to 244 °C. In data set [1], the viability at 1 µM stood at 76.7% and the viability at 10 µM was found to be 99.3%. In addition, in data set [2], the viability at 1 µM was 83% and the viability at 10 µM was 102%.

As for `O=C1NC(=O)C2C1C1c3ccccc3C2(CC[N+](=O)[O-])c2ccccc21` (stereo not shown) [Compound 14b, 9-(2-Nitroethyl)-9,10-dihydro-9,10-[3,4]epipyrroloanthracene-12,14-dione], the melting point lay in the range of 295 to 297 °C. Also, in data set [1], the viability at 1 µM amounted to 58.5% and the viability at 10 µM stood at 95%. Also, in data set [2], the viability at 1 µM was 79.3% and the viability at 10 µM was found to be 101%.

`O=C1C2C3c4ccccc4C(CC[N+](=O)[O-])(c4ccccc43)C2C(=O)N1c1ccccc1` (stereo not shown) [Compound 14c, 9-(2-Nitroethyl)-13-phenyl-9,10-dihydro-9,10-[3,4]epipyrroloanthracene-12,14-dione] displayed a melting point of 248 to 250 °C. In addition, in data set [1], the viability at 1 µM was 75.5% and the viability at 10 µM came out at 79.2%. In data set [2], the viability at 1 µM turned out to be 75.7% and the viability at 10 µM came out at 81.4%.

Usually IC50 stands for the point on the concentration scale where inhibition reaches its midpoint. For `O=C1C2C3c4ccccc4C(/C=C/[N+](=O)[O-])(c4ccccc43)C2C(=O)N1c1ccc(F)cc1` (stereo not shown) [Compound 16e, (E)-13-(4-Fluorophenyl)-9-(2-nitrovinyl)-9,10-dihydro-9,10-[3,4]epipyrroloanthracene-12,14-dione], the melting point fell in the range of 242 to 243 °C. Also, in data set [1], the IC50 was found to be 250 nM, the viability at 1 µM was found to be 0.07% and the viability at 10 µM is 1.4%. In addition, in data set [2], the viability at 1 µM was determined as 35.4% and the viability at 10 µM is 2.3%.

Compound `COc1cc(N2C(=O)C3C4c5ccccc5C(/C=C/[N+](=O)[O-])(c5ccccc54)C3C2=O)cc(OC)c1OC` (stereo not shown) [Compound 16f, (E)-9-(2-Nitrovinyl)-13-(3,4,5-trimethoxyphenyl)-9,10-dihydro-9,10-[3,4]epipyrroloanthracene-12,14-dione] registered a melting point of 270 to 272 °C. In data set [1], the IC50 worked out at 240 nM, the viability at 1 µM was 1.8% and the viability at 10 µM is 1.1%. Moreover, in data set [2], the viability at 1 µM worked out at 25.6% and the viability at 10 µM is 0.46%.

Turning to `O=C1C2C3c4ccccc4C(/C=C/[N+](=O)[O-])(c4ccccc43)C2C(=O)N1c1ccc(Br)cc1` (stereo not shown) [Compound 16g, (E)-13-(4-Bromophenyl)-9-(2-nitrovinyl)-9,10-dihydro-9,10-[3,4]epipyrroloanthracene-12,14-dione], the melting point fell in the range of 267 to 268 °C. In addition, in data set [1], the IC50 came to 220 nM, the viability at 1 µM amounted to 2.1% and the viability at 10 µM was determined as 1.1%. In data set [2], the viability at 1 µM was 28.2% and the viability at 10 µM was 0.55%.

Turning to `COC(=O)c1ccc(N2C(=O)C3C4c5ccccc5C(/C=C/[N+](=O)[O-])(c5ccccc54)C3C2=O)cc1` (stereo not shown) [Compound 16h, Methyl (E)-4-(9-(2-nitrovinyl)-12,14-dioxo-9,10-dihydro-9,10-[3,4]epipyrroloanthracen-13-yl)benzoate], the melting point lay within 254 to 255 °C. For the same compound, in data set [1], the IC50 turned out to be 200 nM, the viability at 1 µM turned out to be 2.3% and the viability at 10 µM was 0.79%. For the same compound, in data set [2], the viability at 1 µM amounted to 20.8% and the viability at 10 µM was 0.18%.

As for `O=C(c1ccccc1)c1ccc(N2C(=O)C3C4c5ccccc5C(/C=C/[N+](=O)[O-])(c5ccccc54)C3C2=O)cc1` (stereo not shown) [Compound 16i, (E)-13-(4-Benzoylphenyl)-9-(2-nitrovinyl)-9,10-dihydro-9,10-[3,4]epipyrroloanthracene-12,14-dione], the melting point was 232 to 234 °C. In data set [1], the IC50 is 240 nM, the viability at 1 µM is 2% and the viability at 10 µM is 1.2%. Besides, in data set [2], the viability at 1 µM was 77.5% and the viability at 10 µM stood at 2.7%.

Compound `COc1cc(OC)cc(N2C(=O)C3C4c5ccccc5C(/C=C/[N+](=O)[O-])(c5ccccc54)C3C2=O)c1` (stereo not shown) [Compound 16j, (E)-13-(3,5-Dimethoxyphenyl)-9-(2-nitrovinyl)-9,10-dihydro-9,10-[3,4]epipyrroloanthracene-12,14-dione] displayed a melting point of 268 to 271 °C. Moreover, in data set [1], the IC50 turned out to be 260 nM, the viability at 1 µM was 4.2% and the viability at 10 µM came to 5.4%. In data set [2], the viability at 1 µM was 33.5% and the viability at 10 µM worked out at 0.16%.

`O=C1C2C3c4ccccc4C(/C=C/[N+](=O)[O-])(c4ccccc43)C2C(=O)N1c1cccc(Cl)c1` (stereo not shown) [Compound 16k, (E)-13-(3-Chlorophenyl)-9-(2-nitrovinyl)-9,10-dihydro-9,10-[3,4]epipyrroloanthracene-12,14-dione] yielded a melting point of 258 to 261 °C. Besides, in data set [1], the viability at 1 µM was found to be 2.7% and the viability at 10 µM was 0.84%. In addition, in data set [2], the viability at 1 µM came out at 69% and the viability at 10 µM stood at 0%.

In the case of `O=C1C2C3c4ccccc4C(/C=C/[N+](=O)[O-])(c4ccccc43)C2C(=O)N1c1ccccc1O` (stereo not shown) [Compound 16l, (E)-13-(2-Hydroxyphenyl)-9-(2-nitrovinyl)-9,10-dihydro-9,10-[3,4]epipyrroloanthracene-12,14-dione], the melting point is 203 to 206 °C. For the same compound, in data set [1], the viability at 1 µM was found to be 2.3% and the viability at 10 µM is 0.61%. Moreover, in data set [2], the viability at 1 µM amounted to 59.2% and the viability at 10 µM was 0%.

The compound `CC(=O)Oc1cccc(N2C(=O)C3C4c5ccccc5C(/C=C/[N+](=O)[O-])(c5ccccc54)C3C2=O)c1` (stereo not shown) [Compound 16m, (E)-3-(9-(2-Nitrovinyl)-12,14-dioxo-9,10-dihydro-9,10-[3,4]epipyrroloanthracen-13-yl)phenyl acetate] yielded a melting point of 246 to 248 °C. Also, in data set [1], the IC50 worked out at 230 nM, the viability at 1 µM stood at 2% and the viability at 10 µM was 1.2%. For the same compound, in data set [2], the viability at 1 µM is 35.9% and the viability at 10 µM came to 0%.

As to `Nc1ccc(N2C(=O)C3C4c5ccccc5C(/C=C/[N+](=O)[O-])(c5ccccc54)C3C2=O)cc1` (stereo not shown) [Compound 16n, (E)-13-(4-Aminophenyl)-9-(2-nitrovinyl)-9,10-dihydro-9,10-[3,4]epipyrroloanthracene-12,14-dione], the melting point is greater than 300 °C. For the same compound, in data set [1], the IC50 came to 300 nM, the viability at 1 µM is 1.7% and the viability at 10 µM worked out at 3.7%. Further, in data set [2], the viability at 1 µM is 20.8% and the viability at 10 µM is 0.18%.

In turn, `C/C(=C\C12c3ccccc3C(c3ccccc31)C1C(=O)N(c3ccccc3)C(=O)C12)[N+](=O)[O-]` (stereo not shown) [Compound 17a, (E)-9-(2-Nitroprop-1-en-1-yl)-13-phenyl-9,10-dihydro-9,10-[3,4]epipyrroloanthracene-12,14-dione] showed a melting point of 263 to 266 °C. In data set [1], the viability at 1 µM was found to be 79.8% and the viability at 10 µM was determined as 68.6%. Further, in data set [2], the viability at 1 µM turned out to be 78.3% and the viability at 10 µM came to 88.9%.

`CC/C(=C\C12c3ccccc3C(c3ccccc31)C1C(=O)N(c3ccccc3)C(=O)C12)[N+](=O)[O-]` (stereo not shown) [Compound 17b, (E)-9-(2-Nitrobut-1-en-1-yl)-13-phenyl-9,10-dihydro-9,10-[3,4]epipyrroloanthracene-12,14-dione] displayed a melting point of 259 to 263 °C. Further, in data set [1], the viability at 1 µM was 92.6% and the viability at 10 µM amounted to 83.4%. Also, in data set [2], the viability at 1 µM was 96.4% and the viability at 10 µM came out at 99.9%.

Compound `C/C(=C\C12c3ccccc3C(c3ccccc31)C1C(=O)N(c3ccc(Cl)cc3)C(=O)C12)[N+](=O)[O-]` (stereo not shown) [Compound 17c, (E)-13-(4-Chlorophenyl)-9-(2-nitroprop-1-en-1-yl)-9,10-dihydro-9,10-[3,4]epipyrroloanthracene-12,14-dione] showed a melting point of 298 to 300 °C. Besides, in data set [1], the viability at 1 µM was found to be 78% and the viability at 10 µM was determined as 77.6%. For the same compound, in data set [2], the viability at 1 µM came to 96.6% and the viability at 10 µM worked out at 86.3%.

In the case of `CC/C(=C\C12c3ccccc3C(c3ccccc31)C1C(=O)N(c3ccc(Cl)cc3)C(=O)C12)[N+](=O)[O-]` (stereo not shown) [Compound 17d, (E)-13-(4-Chlorophenyl)-9-(2-nitrobut-1-en-1-yl)-9,10-dihydro-9,10-[3,4]epipyrroloanthracene-12,14-dione], the melting point fell in the range of 275 to 279 °C. Moreover, in data set [1], the viability at 1 µM stood at 102% and the viability at 10 µM came to 99.9%. Further, in data set [2], the viability at 1 µM came to 96.6% and the viability at 10 µM came out at 78.4%.

`CC/C(=C\C12c3ccccc3C(c3ccccc31)C1C(=O)N(c3ccc(OC)cc3)C(=O)C12)[N+](=O)[O-]` (stereo not shown) [Compound 17f] gave a melting point of 254 to 256 °C. Also, in data set [1], the viability at 1 µM amounted to 86.5% and the viability at 10 µM is 84.5%. Moreover, in data set [2], the viability at 1 µM was found to be 91.4% and the viability at 10 µM amounted to 85.1%.
